# According to patent US8969629B2, “Cyclic compound, production process thereof, radiation-sensitive composition and resist pattern formation method” (Mitsubishi Gas Chemical Company, Inc., priority 2009, dated 2015):
# Assay: Solubility test of compound in safe solvent
# Format: physicochemical
# Details: for dissolution amount in CHN: cyclohexanone (CHN); for dissolution amount in PGME: propylene glycol monomethyl ether (PGME)
# Description: A: 5.0 wt %≦dissolution amount
# B: 3.0 wt %≦dissolution amount<5.0 wt %
# C: dissolution amount<3.0 wt %
dissolution amount in CHN,dissolution amount in PGME,Compound
A (5.0 wt %≦dissolution amount),A (5.0 wt %≦dissolution amount),Oc1ccc(C2c3cc(c(OC4CCCCC4)cc3O)C(c3ccc(O)cc3)c3cc(c(O)cc3OC3CCCCC3)C(c3ccc(O)cc3)c3cc(c(OC4CCCCC4)cc3O)C(c3ccc(O)cc3)c3cc2c(O)cc3OC2CCCCC2)cc1 (centres unmarked) [CR-1A]
A (5.0 wt %≦dissolution amount),A (5.0 wt %≦dissolution amount),Oc1ccc(C2c3cc(c(OC4CCCCC4)cc3O)C(c3ccc(O)c(O)c3)c3cc(c(O)cc3OC3CCCCC3)C(c3ccc(O)c(O)c3)c3cc(c(OC4CCCCC4)cc3O)C(c3ccc(O)c(O)c3)c3cc2c(O)cc3OC2CCCCC2)cc1O (centres unmarked) [CR-2A]
A (5.0 wt %≦dissolution amount),A (5.0 wt %≦dissolution amount),CC1CCC(Oc2cc(O)c3cc2C(c2ccc(O)cc2)c2cc(c(O)cc2OC2CCC(C)CC2)C(c2ccc(O)cc2)c2cc(c(OC4CCC(C)CC4)cc2O)C(c2ccc(O)cc2)c2cc(c(O)cc2OC2CCC(C)CC2)C3c2ccc(O)cc2)CC1 (centres unmarked) [CR-3A]
A (5.0 wt %≦dissolution amount),A (5.0 wt %≦dissolution amount),Cc1cc(C2c3cc(c(OC4CCC(C)CC4)cc3O)C(c3ccc(O)c(O)c3)c3cc(c(O)cc3OC3CCC(C)CC3)C(c3ccc(O)c(O)c3)c3cc(c(OC4CCC(C)CC4)cc3O)C(c3ccc(O)c(O)c3)c3cc2c(O)cc3OC2CCC(C)CC2)ccc1O (centres unmarked) [CR-4A]
A (5.0 wt %≦dissolution amount),A (5.0 wt %≦dissolution amount),CC1CC(Oc2cc(O)c3cc2C(c2ccc(O)c(O)c2)c2cc(c(O)cc2OC2CC(C)CC(C)(C)C2)C(c2ccc(O)c(O)c2)c2cc(c(OC4CC(C)CC(C)(C)C4)cc2O)C(c2ccc(O)c(O)c2)c2cc(c(O)cc2OC2CC(C)CC(C)(C)C2)C3c2ccc(O)c(O)c2)CC(C)(C)C1 (centres unmarked) [CR-7A]
C (dissolution amount<3.0 wt %),C (dissolution amount<3.0 wt %),"COc1cc(O)c2cc1C(c1ccc(C)cc1C)c1cc(c(O)cc1OC)C(c1ccc(C)cc1C)c1cc(c(OC)cc1O)C(c1ccc(C)cc1C)c1cc(c(O)cc1OC)C2c1ccc(C)cc1C (centres unmarked) [CR-8A, reference compound]"
C (dissolution amount<3.0 wt %),C (dissolution amount<3.0 wt %),"CCOc1cc(O)c2cc1C(c1ccc(OC)cc1)c1cc(c(O)cc1OCC)C(c1ccc(OC)cc1)c1cc(c(OCC)cc1O)C(c1ccc(OC)cc1)c1cc(c(O)cc1OCC)C2c1ccc(OC)cc1 (centres unmarked) [CR-9A, reference compound]"
